# Experiments:
# [1] = system: SHR (Spontaneously hypertensive rat); experiment: Systolic blood pressure of SHR by tail cuff method; format: in vivo; details: 5 hours after administration, HCTZ 10 mg/kg, pratosartan 3 mg/kg, mean ± SD, in mmHg (unit assumed); for systolic blood pressure level, Day 1: before drug 220-222
# Experimental: The systolic blood pressure level of male 20 weeks old SHR (Spontaneously hypertensive rat, SPF grade) was measured by tail cuff methods, and animals were randomized into 4 groups to balance the systolic blood pressure level among groups. 0.5% methylcellulose (MC) or drugs suspended in 0.5% MC were administered for 28 days, and systolic blood pressure levels after 5 hours of drug administration were measured at day 1, 7, 14 and 28. In table 3 , experimental groups, subject substances, doses, and the measured blood pressure levels (mean±standard deviation) were shown in table 4. Further, the subject substances were hydrochlorothiazide (HCTZ), pratosartan, and co-administration of HCTZ and pratosartan. The dose of HCTZ and pratosartan were 10 mg/kg and 3 mg/kg, respectively, and the dosage volume was 2 mL/kg in each case.
# [2] = system: male 6 weeks old SD rats; experiment: Uricosuric action estimated by delayed disappearance of blood phenol red; format: in vivo, rat; details: for The enhance rate of uric acid excretion (%): phenol red 75 mg/kg i.v. 3 h later, serum 1 h after, control group = 100%, mean ± SD
# Experimental: The uricosuric action is estimated by the delayed disappearance of blood phenol red level as a marker. Namely, male 6 weeks old SD rats were orally administered 0.5% methylcellulose (MC) or pratosartan (30 mg/kg or 100 mg/kg), and after three hours, phenol red solution (75 mg/kg) was intravenously adirninstered. One hour after phenol red administration, blood sample was collected from abdominal aorta under ether anesthesia, and the amount of phenol red in serum was determined. The amount of phenol red level in control group was taken as 100%, and the delayed rate of phenol red disappearance from blood in pratosartan treated group was estimated as the enhance rate of uric acid excretion (%). In table 1, experimental groups, subject substances, doses and the enhance rates of uric acid excretion (mean±standard deviation).
# [3] = system: patients with mild and moderate essential hypertension complicated with hyperuricemia; experiment: Serum uric acid level in hypertensive patients complicated with hyperuricemia; format: in vivo, human; details: 17 patients, 40 to 160 mg/day
# Experimental: Studies were carried out intended for mild and moderate essential hypertension. 17 patients complicated with hyperuricemia were administered pratosartan, and serum uric acid levels (mg/dL) before drug administration and the last day during administration were determined. Further, the dose of from 40 to 160 mg/day was administered every four weeks by degrees if the hypotensive action was insufficient.
# [4] = system: patients with mild or moderate essential hypertension; experiment: Serum cholesterol level in patients with essential hypertension; format: in vivo, human
# Experimental: 107 patients with mild or moderate essential hypertension were administered at dose of from 40 to 160 mg/day was administered every four weeks by degrees if the hypotensive action was insufficient. Serum cholesterol level before pratosartan administration was compared with that of the last day during pratosartan administration in each patient. Also, a part of patients were other co-administered pratosartan and conventionally known hypolipidemic drugs. General names of co-administered drugs, doses and number of patients were as follows. Namely, the list was pravastatin (10 mg/day, 3 patients), simvastatin (5 mg/day, 3 patients), cerivastatin (0.15 mg/day, 2 patients), atorvastatin (5 mg/day, 1 patients), fenofibrate (150 mg/day, 1 patient) and probucol (500 mg/day, 1 patient). The results when the patients were classified in the presence and absence of other co-administered drugs, were shown in table 6 and 7. The result in the presence of co-administered drugs was shown in table 6, and the result in the absence of co-administered drug was shown in […]. Further, data were shown mean±standard deviation.
smiles,measurement,setting,value
"NS(=O)(=O)c1cc2c(cc1Cl)NCNS2(=O)=O [HCTZ, hydrochlorothiazide, reference compound]","systolic blood pressure level, Day 1",[1],220 ± 2
same,"systolic blood pressure level, Day 7",[1],219 ± 3
same,"systolic blood pressure level, Day 14",[1],219 ± 4
same,"systolic blood pressure level, Day 28",[1],214 ± 2
"CCCc1nc2c(n1Cc1ccc(-c3ccccc3-c3nnn[nH]3)cc1)C(=O)CCCC2 [pratosartan, 2-propyl-3-{[2′-(1H-tetrazole-5-yl)biphenyl-4-yl]methyl}-5,6,7,8-tetrahydrocyclohepta imidazole-4-(3H)-one]",The enhance rate of uric acid excretion (%),[2]; 30 mg/kg oral,105 ± 10%
same,The enhance rate of uric acid excretion (%),[2]; 100 mg/kg oral,172 ± 17%
same,excretion of uric acid,"[2]; SD rats, 30 or 100 mg/kg oral",enhance the excretion of uric acid
same,"systolic blood pressure level, Day 1",[1],206 ± 2
same,"systolic blood pressure level, Day 7",[1],190 ± 3
same,"systolic blood pressure level, Day 14",[1],190 ± 1
same,"systolic blood pressure level, Day 28",[1],189 ± 1
same,"Serum uric acid level, the last day during administration",[3]; before drug administration 8.0 ± 1.1,7.4 ± 1.0 mg/dL
same,"Serum uric acid level, difference",[3]; last day during administration versus before drug administration,-0.7 ± 1.3 mg/dL
same,"Serum cholesterol level, the last day during administration","[4]; 12 patients with co-administered hypolipidemic drugs, before drug administration 250.25 ± 45.16",214.58 ± 37.31 mg/dL
same,"Serum cholesterol level, difference","[4]; 12 patients with co-administered hypolipidemic drugs, paired t-test P < 0.05",-35.67 ± 41.49 mg/dL
same,"Serum cholesterol level, the last day during administration","[4]; 95 patients without co-administered drug, before drug administration 206.28 ± 39.81",197.66 ± 40.33 mg/dL
same,"Serum cholesterol level, difference","[4]; 95 patients without co-administered drug, paired t-test P < 0.01",-8.62 ± 26.60 mg/dL
same,"Serum cholesterol level, the last day during administration","[4]; all 107 patients, 40 to 160 mg/day, before drug administration 211.2 ± 42.6",199.6 ± 40.2 mg/dL
same,"Serum cholesterol level, difference","[4]; all 107 patients, 40 to 160 mg/day, paired t-test P < 0.0001",-11.7 ± 29.7 mg/dL
